Assay results from US20040259888A1, “Novel 4-aminofuropyrimidines and the use thereof” (priority 2001, published 2004).

| Structure (SMILES) | melting point |
| --- | --- |
| CN1CCC(N(C)c2ncnc3oc(-c4ccc(F)cc4)c(-c4ccc(F)cc4)c23)CC1 | 180 to 181 °C |
| COc1cc(OC)cc(-c2oc3ncnc(NC4CCCCCC4)c3c2-c2ccccc2)c1 [Example 1, N-Cycloheptyl-6-(3,5-dimethoxyphenyl)-5-phenylfuro[2,3-d]pyrimidine-4-amine] | 151 to 152 °C |
| COc1cc(OC)cc(-c2oc3ncnc(N4CCCCC4)c3c2-c2ccccc2)c1 [Example 2, 6-(3,5-Dimethoxyphenyl)-5-phenyl-4-(1-piperidinyl)furo[2,3-d]pyrimidine] | 152 to 153 °C |
| CN1CCN(c2ncnc3oc(-c4ccc([N+](=O)[O-])cc4)c(-c4ccc(F)cc4)c23)CC1 [Example 3, 5-(4-Fluorophenyl)-4-(4-methyl-1-piperazinyl)-6-(4-nitrophenyl)furo[2,3-d]pyrimidine] | > 250 °C |
| CN1CCN(c2ncnc3oc(-c4ccc(N5CCOCC5)nc4)c(-c4ccccc4)c23)CC1 [Example 7, 4-(4-Methyl-1-piperazinyl)-6-[N-(4-morpholinyl)-3-pyridinyl]-5-phenylfuro[2,3-d]pyrimidine] | 255 to 257 °C |
| COc1ccc(-c2oc3ncnc(N4CCN(CCO)CC4)c3c2-c2ccc(F)cc2)cc1OC [Example 39] | 156 to 158 °C |
| O=C(Nc1ccc(-c2oc3ncnc(N4CCOCC4)c3c2-c2ccc(F)cc2)cc1)c1ccc([N+](=O)[O-])cc1 [Example 47] | > 250 °C |
| CN1CCN(c2ncnc3oc(-c4ccc(NC(=O)c5cccc([N+](=O)[O-])c5)cc4)c(-c4ccc(F)cc4)c23)CC1 [Example 48] | > 250 °C |
| CN1CCN(c2ncnc3oc(-c4ccc(NC(=O)C5CCCO5)cc4)c(-c4ccc(F)cc4)c23)CC1 (stereo not shown) [Example 49] | > 250 °C |
| COc1ccc(-c2oc3ncnc(N4CCC(C(N)=O)CC4)c3c2-c2ccc(F)cc2)cc1OC [Example 51] | 235 to 237 °C |
| COc1ccc(-c2oc3ncnc(N4CCN(C)CC4)c3c2-c2ccc(F)cc2)cc1OC [Example 53] | 168 to 169 °C |
| COc1ccc(C(=O)Nc2ccc(-c3oc4ncnc(N5CCN(C)CC5)c4c3-c3ccc(F)cc3)cc2)cc1 [Example 54] | 252 to 253 °C |
| CC(=O)NC(C)C(=O)Nc1ccc(-c2oc3ncnc(N4CCOCC4)c3c2-c2ccc(F)cc2)cc1 (stereo not shown) [Example 55] | 250 to 252 °C |
| CCN(CC)c1ncnc2oc(-c3ccc(OC)c(OC)c3)c(-c3ccccc3)c12 [Example 63] | 125 to 126 °C |
| COc1ccc(-c2oc3ncnc(N4CCN(C(C)C)CC4)c3c2-c2ccc(F)cc2)cc1OC [Example 64] | 180 to 181 °C |
| COc1cc(OC)cc(-c2oc3ncnc(NC4CCCCCC4)c3c2-c2ccc(F)cc2)c1 [Example 69] | 170 to 172 °C |
| CN1CCN(c2ncnc3oc(-c4ccc(NC(=O)c5cccnc5)cc4)c(-c4ccc(F)cc4)c23)CC1 [Example 70] | > 250 °C |
| O=C(Nc1ccc(-c2oc3ncnc(N4CCOCC4)c3c2-c2ccc(F)cc2)cc1)C1CCCO1 (stereo not shown) [Example 71] | 201 to 202 °C |
| CN1CCN(c2ncnc3oc(-c4ccc(NCc5ccccc5)cc4)c(-c4ccccc4)c23)CC1 [Example 75] | 161 to 163 °C |

Further lines, results first:

| melting point | Structure (SMILES) |
| --- | --- |
| 161 to 163 °C | COc1cc(OC)cc(-c2oc3ncnc(N4CCN(CCO)CC4)c3c2-c2ccc(F)cc2)c1 [Example 83] |
| > 250 °C | COC(=O)c1ccc(C(=O)Nc2ccc(-c3oc4ncnc(N5CCN(C)CC5)c4c3-c3ccc(F)cc3)cc2)cc1 [Example 88] |
| 173 to 175 °C | CN1CCN(c2ncnc3oc(-c4ccc(Cl)nc4)c(-c4ccccc4)c23)CC1 [Example 94] |
| 131 to 133 °C | COc1cc(OC)cc(-c2oc3ncnc(NC(CO)CO)c3c2-c2ccccc2)c1 [Example 108] |
| 181 to 182 °C | COc1ccc(-c2c(-c3ccc(OC)c(OC)c3)oc3ncnc(NC4CCCCC4)c23)cc1 [Example 109] |
| 176 to 178 °C | COc1ccc(-c2oc3ncnc(N4CCC(O)CC4)c3c2-c2ccccc2)cc1OC [Example 111] |
| 188 to 189 °C | COc1ccc(-c2oc3ncnc(N4CCN(CCO)CC4)c3c2-c2ccccc2)cc1OC [Example 112] |
| 156 to 157 °C | COc1cc(OC)cc(-c2oc3ncnc(N4CCN(C)CC4)c3c2-c2ccccc2)c1 [Example 113] |
| 210 to 212 °C | COc1ccc(-c2oc3ncnc(N4CCN(c5ccccn5)CC4)c3c2-c2ccc(F)cc2)cc1OC [Example 114] |
| 180 to 182 °C | COc1ccc(-c2oc3ncnc(NC4CCCCCC4)c3c2-c2ccc(F)cc2)cc1OC [Example 115] |
| 211 to 213 °C | COc1ccc(-c2oc3ncnc(N4CCOCC4)c3c2-c2ccc(F)cc2)cc1OC [Example 116] |
| 208 to 209 °C | CN1CCN(c2ncnc3oc(-c4ccc(NC5CCCCC5)nc4)c(-c4ccccc4)c23)CC1 [Example 125] |
| 152 to 153 °C | COc1cc(OC)cc(-c2oc3ncnc(NCCc4cccs4)c3c2-c2ccccc2)c1 [Example 134] |
| 153 to 154 °C | COc1cc(OC)cc(-c2oc3ncnc(NC4CCCC4)c3c2-c2ccccc2)c1 [Example 135] |
| 148 to 150 °C | COc1ccc(-c2oc3ncnc(N4CCCCCC4)c3c2-c2ccc(F)cc2)cc1OC [Example 141] |
| > 250 °C | COc1ccc(-c2oc3ncnc(N4CCC(C(N)=O)CC4)c3c2-c2ccccc2)cc1OC [Example 154] |
| 132 to 134 °C | COc1cc(OC)cc(-c2oc3ncnc(N(C)CCO)c3c2-c2ccccc2)c1 [Example 157] |
| 137 to 139 °C | COc1ccc(-c2oc3ncnc(N(CCO)CCO)c3c2-c2ccccc2)cc1OC [Example 159] |
| > 250 °C | COc1ccc(-c2oc3ncnc(Nc4ccncc4)c3c2-c2ccccc2)cc1OC [Example 172] |
| 176 to 177 °C | CN1CCN(c2ccc(-c3oc4ncnc(N5CCN(C)CC5)c4c3-c3ccccc3)cn2)CC1 [Example 173] |
| 156 to 158 °C | OCCN(Cc1ccccc1)c1ncnc2oc(-c3ccc(F)cc3)c(-c3ccc(F)cc3)c12 [Example 177] |
